Assay results taken from ChEMBL document CHEMBL4800726, “Data for DCP probe MSC-4381” (2021).

Assays:
Rattus norvegicus = species: Rattus norvegicus; assay: SKCa channel Eurofins-Cerep binding assay; set-up: ligand concentration 0.007 nM; conditions: filed as antagonist, Compound concentration 10.0 uM
[1] = biological target: L-type Ca2+ channel (verapamil site, phenylalkylamine) (Rattus norvegicus, UniProt P22002+P27732+Q02485); assay: Ca2+ channel (L, verapamil site) (phenylalkylamine) Eurofins-Cerep binding assay; type: protein assay; set-up: incubation time 120 min, incubation temperature RT, ligand concentration 3 nM; conditions: rat cerebral cortex, probe [3H]D888, compound concentration 10 uM, read-out: % Inhibition of Control Specific Binding (Mean n=2)
[2] = biological target: Prostaglandin E2 receptor EP4 subtype (Homo sapiens) (UniProt P35408); assay: EP4 (h) Eurofins-Cerep binding assay; set-up: ligand concentration 0.5 nM; conditions: filed as agonist, Compound concentration 10.0 uM
[3] = biological target: D(1A) dopamine receptor (Homo sapiens) (UniProt P21728); assay: D1 (h) Eurofins-Cerep binding assay; set-up: ligand concentration 0.3 nM; conditions: filed as antagonist, Compound concentration 10.0 uM
[4] = biological target: Vasopressin V1a receptor (Homo sapiens) (UniProt P37288); assay: V1 a (h) Eurofins-Cerep binding assay; set-up: ligand concentration 0.3 nM; conditions: filed as agonist, Compound concentration 10.0 uM
[5] = biological target: 5-hydroxytryptamine receptor 1D (Homo sapiens) (UniProt P28221); conditions: Compound concentration 10.0 uM
5-hydroxytryptamine receptor 1D (Homo sapiens), sequence (P28221 whole entry): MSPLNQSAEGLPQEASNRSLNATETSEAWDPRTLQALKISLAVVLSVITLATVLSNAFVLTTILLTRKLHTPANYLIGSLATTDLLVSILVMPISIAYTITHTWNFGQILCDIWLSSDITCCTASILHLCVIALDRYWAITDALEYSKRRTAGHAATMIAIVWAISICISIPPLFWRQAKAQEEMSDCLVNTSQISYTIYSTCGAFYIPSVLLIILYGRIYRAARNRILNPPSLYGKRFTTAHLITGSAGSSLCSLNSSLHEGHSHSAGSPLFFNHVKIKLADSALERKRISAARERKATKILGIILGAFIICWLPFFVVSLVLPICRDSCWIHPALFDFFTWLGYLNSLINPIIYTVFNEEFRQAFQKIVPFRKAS

Prostaglandin E2 receptor EP4 subtype (Homo sapiens), sequence (P35408 whole entry): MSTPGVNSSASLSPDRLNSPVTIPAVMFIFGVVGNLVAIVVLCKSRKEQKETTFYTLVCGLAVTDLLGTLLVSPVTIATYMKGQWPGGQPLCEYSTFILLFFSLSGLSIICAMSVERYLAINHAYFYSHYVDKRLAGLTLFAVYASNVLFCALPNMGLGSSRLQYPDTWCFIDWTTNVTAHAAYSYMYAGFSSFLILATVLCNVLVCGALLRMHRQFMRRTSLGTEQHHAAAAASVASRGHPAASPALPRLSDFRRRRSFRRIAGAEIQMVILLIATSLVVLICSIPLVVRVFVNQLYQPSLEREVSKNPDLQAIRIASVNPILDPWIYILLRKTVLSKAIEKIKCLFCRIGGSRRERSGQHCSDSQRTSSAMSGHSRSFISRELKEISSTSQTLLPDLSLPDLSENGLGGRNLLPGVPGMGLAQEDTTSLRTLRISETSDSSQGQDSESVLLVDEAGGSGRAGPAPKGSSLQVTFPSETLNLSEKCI
D(1A) dopamine receptor (Homo sapiens), sequence (P21728 whole entry): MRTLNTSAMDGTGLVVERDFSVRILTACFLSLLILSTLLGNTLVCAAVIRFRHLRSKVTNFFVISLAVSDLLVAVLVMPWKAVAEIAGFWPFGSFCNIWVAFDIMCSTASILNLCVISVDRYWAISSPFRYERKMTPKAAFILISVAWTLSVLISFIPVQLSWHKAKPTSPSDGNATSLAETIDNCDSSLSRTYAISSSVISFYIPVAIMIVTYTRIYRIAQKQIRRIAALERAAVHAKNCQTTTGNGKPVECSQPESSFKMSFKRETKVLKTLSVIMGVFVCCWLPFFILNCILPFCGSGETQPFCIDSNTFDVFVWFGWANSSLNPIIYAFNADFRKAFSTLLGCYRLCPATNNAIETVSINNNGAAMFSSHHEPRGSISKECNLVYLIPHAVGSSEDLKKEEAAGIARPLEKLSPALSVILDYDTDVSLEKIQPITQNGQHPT
Vasopressin V1a receptor (Homo sapiens), sequence (P37288 whole entry, looked up): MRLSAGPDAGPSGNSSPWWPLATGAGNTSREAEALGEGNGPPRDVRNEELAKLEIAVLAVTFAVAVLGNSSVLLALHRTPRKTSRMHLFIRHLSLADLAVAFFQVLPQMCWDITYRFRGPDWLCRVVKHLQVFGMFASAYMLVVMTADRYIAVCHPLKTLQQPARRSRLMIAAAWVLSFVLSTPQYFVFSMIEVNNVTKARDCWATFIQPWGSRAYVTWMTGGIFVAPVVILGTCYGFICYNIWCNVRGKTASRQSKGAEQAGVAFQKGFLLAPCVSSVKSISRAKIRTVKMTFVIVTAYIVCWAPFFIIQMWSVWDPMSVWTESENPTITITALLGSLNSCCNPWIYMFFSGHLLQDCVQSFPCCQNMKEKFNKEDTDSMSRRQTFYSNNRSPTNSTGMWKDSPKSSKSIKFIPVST

| SMILES | % Inhibition of Control Specific Binding (Mean n=2) (Rattus norvegicus) [%] | inhibition at 120 min, 10 µM [1] [%] | % Inhibition of Control Specific Binding (Mean n=2) [2] [%] | % Inhibition of Control Specific Binding (Mean n=2) [3] [%] | % Inhibition of Control Specific Binding (Mean n=2) [4] [%] | inhibition [5] [%] |
| --- | --- | --- | --- | --- | --- | --- |
| CCOc1ccc(S(=O)(=O)Nc2ccc(Cl)cc2C#Cc2cnc(C(=O)O)cc2OC)c2ncccc12 [MSC-4381] | -6.7 | -9.8 | 47.2 | 28.9 | 92.3 |  |
| COc1cc(C(=O)O)ncc1C#Cc1ccccc1NS(=O)(=O)c1cccc2c(N(C)C)ccnc12 [MSC-0516] |  |  |  |  |  | 11.4 |
